# Measured values as given in patent US20250327191A1, “CORROSSION INHIBITOR COMPOSITIONS” (Tata Consultancy Services Limited, priority 2024, published 2025).
# Assay: Corrosion inhibition on steel coupons immersed in 1M HCl for 2 hrs
# Protocol: The corrosion inhibitor composition of the example—1 is tested for its corrosion inhibition effect on steel at two temperatures. The steel being the ferrous alloy has the following composition:
# The steel coupons are initially abraded with various emery papers of decreasing coarseness i.e. 80, 150, 220, 400 grits to obtain a fine finish surface. The fine finished coupons are cleaned with acetone and then wrapped in paper to avoid any further oxidation and stored in a safe and dry place until further use. The 400 grit finished coupons are immersed in 100 ml 1M HCl solution for 2 hrs at room temperature and at […], to find out the corrosion rate. Similarly, the fine finished coupons are also immersed in 100 ml 1M HCl along with the composition of the example—1 with an effective concentration of inhibitor 200, 500 and 1000 ppm for 2 hrs at room temperatures. […] As, it is also essential for the corrosion inhibitors to perform well in case of higher temperatures. Further, the composition of example—1 is tested at higher temperatures. The below Table-2 provides the information on test results. It is evident from the Table-2 that the inhibition efficiencies at 60° C. is relatively higher than that of room temperature. The average corrosion rates (CR) at room temperature and 60° C. in 1 M HCl without inhibitor for 2 hrs immersion are 1.1081 cm/y and 16.42325 cm/y respectively. The inhibition efficiency (IE) is calculated using the formula: […]
smiles,measurement,setting,value
"Cc1ccc(C=O)s1 [5-Methyl-2-thiophenecarboxaldehyde, 5-methyl-2-thiophenecarboxaldehyde]",IE (%),"200 ppm, no KI intensifier, 27 °C",54.03%
same,IE (%),"500 ppm, no KI intensifier, 27 °C",63.58%
same,IE (%),"1000 ppm, 0.1 wt % KI, 27 °C",84.07%
same,IE (%),"1000 ppm, 0.25 wt % KI, 27 °C",90.43%
same,IE (%),"1000 ppm, 0.5 wt % KI, 27 °C",92.36%
same,IE (%),"1000 ppm, 0.5 wt % KI, 60 °C",95.06%
same,IE (%),"1000 ppm, no KI intensifier, 27 °C",72.65%
